Where a name gives a salt, the structure may show the parent alone. One block for each compound: values may come before it.
Columns and labels:
[1] = test system: gelatinase belonging to the MMPs; conditions: skin irradiated with UVB for 10 weeks, EDTA (100 mM) added in vitro; FIG. 3C
Text: By staining gelatin with the Ponceau solution, the gelatin digested area (the area in which the gelatinase activity is present) was rendered white for detection.

[2] = test system: sebum secretion; experiment: Inhibitory effect of MMPs inhibitors on sebum secretion in UVB-irradiated hairless mice (sebumeter); format: in vivo
Text: UV is generally known to activate the sebaceous gland cells on the skin and thereby to enhance the amount of sebum secretion, which has been reported on a model using hairless mice ([…] et al., Arch Dermatol., Vol. 284, 106 (1992)). In an experiment, Bissett et al. (Phytochem. Phytobiol, Vol. 46, 3, 367 (1987)) applied the method of preparing a light-aged skin, and induced the activation of sebaceous gland cells and enhancement in the amount of sebum by irradiating the dorsal area of the […] repeatedly three times per week for 5-8 weeks by controlling the amount of UVB irradiation to under the […] formation level. […] As the control, a group in which the solvent for the test substance was applied in a similar protocol was set up, and the effect of inhibiting sebum was evaluated by comparing the amount of sebum between the two. The measurement of sebum amount was performed using a sebumeter (COURAGE KHAZAKA company). From the measured values, the ratio (%) of sebum inhibition was calculated based on the following criteria: [formula]

[3] = test system: sebaceous gland; experiment: Effect of transdermal application of an MMPs inhibitor on sebaceous gland development under UVB stimulation; format: in vivo, hairless mice; conditions: FIG. 4A vs solvent only FIG. 4B
Text: It is known that when UVB (50 mJ/cm^2-200 mJ/cm^2; 50 mJ/cm^2 at the start of irradiation, the amount of irradiation is increased stepwise depending on the number of irradiations) below the erythema formation level is repeatedly irradiated to hairless mice, the sebaceous gland becomes developed and the amount of sebum increases (R. H. Lesnik et al., Arch Dermatol., Vol. 284, 106 (1992)). FIG. 2A and FIG. 2B represent the H&E stains of the UVB-non-irradiated tissue and the UVB-irradiated tissue. It is observed that UVB irradiation results in the thickening of the epidermis as well as the development of the sebaceous gland.
(§1) The effect of the transdermal application of an MMPs inhibitor on the sebaceous gland development and the gelatinase activity present in the sebaceous gland is shown for active substance A as an example (FIG. 4A and FIG. 4B).

[4] = test system: gelatinase; experiment: Gelatinase activity in the sebaceous gland after transdermal application, in situ zymography; format: in vivo, hairless mice; conditions: FIG. 4A vs solvent only FIG. 4B
Text: as §1

[5] = 100 μl of 1% test substance applied three times per week immediately after each UV irradiation, vs solvent group, hairless mice dorsal area, 5-8 weeks UVB

Gelatin degradation at the epidermal area and the sebaceous gland area [1]: inhibited the gelatin degradation
Compound: O=C(O)CN(CCN(CC(=O)O)CC(=O)O)CC(=O)O [EDTA]

Compound: COc1ccc(S(=O)(=O)N(Cc2cccnc2)[C@@H](C(=O)NO)C(C)C)cc1 [Hydrochloride of active ingredient A]
Ratio of sebum inhibition (%) [2, 5]: 79%

Compound: COc1ccc(S(=O)(=O)N(Cc2cccnc2)[C@@H](C(=O)NO)C(C)C)cc1 [active substance A]
Development of the sebaceous gland area [3]: suppresses the development of the sebaceous gland area
Gelatinase activity present in the sebaceous gland [4]: inhibited

Compound: C[C@]12CC[C@@H]3c4ccc(O)cc4CC[C@H]3[C@@H]1CC[C@@H]2O [Estradiol, estradiol, reference compound]
Ratio of sebum inhibition (%) ([2]; positive control, 0.6 mg/kg oral administration, UVB-irradiated hairless mice): 65%

Compound: COc1cc(/C=C/C(=O)CC(=O)/C=C/c2ccc(O)c(OC)c2)ccc1O [Curcumine, curcumine]
Ratio of sebum inhibition (%) [2, 5]: 77%
